Here are results for one compound from patent US20110152099A1, “BIOACTIVE COMPOUNDS OF ASCOPHYLLUM NODOSUM AND THEIR USE FOR ALLEVIATING SALT-INDUCED STRESS IN PLANTS” (priority 2008, published 2011).

The test deals with plants under salt stress. In words: Root length under salt stress. The class given is in vivo. The conditions noted are these: compared to +Na untreated plants. An excerpt: The code numbers in FIG. 18 refer to different organic extracts.

Structures are written as SMILES.

Turning to `C/C=C(/CCC(C)C1CCC2C3CC=C4CC(O)CCC4(C)C3CCC12C)C(C)C` (stereo not shown) [fucosterol, 24-ethylidene cholesterol], the root length result is “longer root length”.
